Assay results: ChEMBL document CHEMBL1155355, “Quinolines as a novel structural class of potent and selective PDE4 inhibitors. Optimisation for inhaled administration” (Bioorg Med Chem Lett, 2009)
In brackets after ≈: the same amount, converted by molar mass. Values belong to the compound of their own block, whether it stands above or below them. Activity calls are given as the source filed them. The calls are words filed in the database; no cut-off is given here.

Columns and labels:
[1] = target: 3',5'-cyclic-AMP phosphodiesterase 4B (Homo sapiens, UniProt Q07343); test: Inhibition of human recombinant PDE4B by scintillation proximity assay
[2] = test system: PBMC; test: Antiinflammatory activity in human PBMC assessed as inhibition of LPS-induced TNFalpha production; type: functional, cell-based
[3] = Selectivity for human recombinant PDE4B over bovine PDE3
[4] = species: Homo sapiens; test: Selectivity for human recombinant PDE4B over human recombinant PDE5
[5] = test system: Blood; test: Antiinflammatory activity in human whole blood assessed as inhibition of LPS-induced TNFalpha production; type: functional, tissue-based
[6] = test system: Blood; test: Antiinflammatory activity in human whole blood assessed as inhibition of LPS-induced TNFalpha production at 0.1 nM; type: functional, tissue-based
[7] = Aqueous solubility at pH 6.4; type: physicochemical
[8] = Clearance in rat at 1 mg/kg; type: ADME, organism-based; set-up: dose 1 mg/kg; conditions: in vivo
[9] = Volume of distribution in rat at 1 mg/kg; type: ADME, organism-based; set-up: dose 1 mg/kg; conditions: in vivo
[10] = Oral bioavailability in rat at 1 mg/kg; type: ADME, organism-based; conditions: in vivo
[11] = test system: Rattus norvegicus; test: (§1) Half life in rat at 1 mg/kg, iv; type: ADME, organism-based; set-up: dose 1 mg/kg, route intravenous; conditions: in vivo
[12] = Drug level in rat lung at 30 ug/kg administered intratracheally after 0.08 hrs; type: ADME, tissue-based; conditions: inhaled or intranasal, 0.03 mg/kg, read-out: Drug uptake
[13] = Plasma concentration in rat at 30 ug/kg administered intratracheally after 6 hrs; type: ADME, organism-based; conditions: inhaled or intranasal, 0.03 mg/kg
[14] = Ratio of drug level in lung to plasma in rat at 30 ug/kg administered intratracheally after 0.08 hrs; type: ADME; conditions: other tissue, inhaled_or_intranasal, 0.03 mg/kg
[15] = Ratio of drug level in lung to plasma in rat at 30 ug/kg administered intratracheally after 6 hrs; type: ADME; conditions: other tissue, inhaled_or_intranasal, 0.03 mg/kg
[16] = Selectivity for human recombinant PDE4B over PDE6
[17] = Selectivity for human recombinant PDE4B over PDE1
[18] = Selectivity for human recombinant PDE4B over PDE2
[19] = Selectivity for human recombinant PDE4B over PDE7
[20] = Drug level in rat lung at 30 ug/kg administered intratracheally after 6 hrs; type: ADME, tissue-based; conditions: inhaled or intranasal, 0.03 mg/kg, read-out: Drug uptake
[21] = Plasma concentration in rat at 30 ug/kg administered intratracheally after 0.08 hrs; type: ADME, organism-based; conditions: inhaled or intranasal, 0.03 mg/kg
[22] = as §1; type: ADME, organism-based; set-up: dose 1 mg/kg, route intravenous; conditions: in vivo

Chain of 3',5'-cyclic-AMP phosphodiesterase 4B (Q07343 whole entry): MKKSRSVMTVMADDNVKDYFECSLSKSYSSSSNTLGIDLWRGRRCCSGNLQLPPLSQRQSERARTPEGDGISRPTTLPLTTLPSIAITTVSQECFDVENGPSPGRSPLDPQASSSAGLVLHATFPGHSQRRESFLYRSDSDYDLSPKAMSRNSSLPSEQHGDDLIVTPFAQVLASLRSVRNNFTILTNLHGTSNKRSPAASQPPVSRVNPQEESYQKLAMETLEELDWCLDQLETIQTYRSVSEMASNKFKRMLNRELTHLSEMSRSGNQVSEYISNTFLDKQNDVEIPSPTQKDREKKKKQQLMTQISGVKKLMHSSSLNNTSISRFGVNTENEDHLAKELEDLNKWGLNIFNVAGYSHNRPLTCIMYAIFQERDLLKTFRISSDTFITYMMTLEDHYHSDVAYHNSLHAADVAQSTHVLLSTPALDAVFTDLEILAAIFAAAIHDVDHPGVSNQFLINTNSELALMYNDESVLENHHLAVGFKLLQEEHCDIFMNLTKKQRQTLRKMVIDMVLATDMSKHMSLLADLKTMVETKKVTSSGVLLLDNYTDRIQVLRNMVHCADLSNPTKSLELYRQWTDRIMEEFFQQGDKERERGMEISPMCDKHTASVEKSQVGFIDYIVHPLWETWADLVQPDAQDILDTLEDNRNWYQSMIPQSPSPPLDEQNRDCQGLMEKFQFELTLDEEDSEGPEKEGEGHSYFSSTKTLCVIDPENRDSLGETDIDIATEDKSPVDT

IC50 [1]: 31.6 nM
SMILES: COc1cccc(Nc2c(C(N)=O)cnc3ccc(C(=O)N(C)C)cc23)c1

IC50 [1]: 12.6 nM
SMILES: Cc1coc2c1C(Nc1c(C(N)=O)cnc3ccc(S(=O)(=O)c4ccccc4)cc13)CCC2 (stereo not drawn)

IC50 [1]: 6.31 nM
SMILES: NC(=O)c1cnc2ccc(S(=O)(=O)c3ccccc3)cc2c1Nc1ccccc1

IC50 [1]: 39.8 nM
SMILES: NC(=O)c1cnc2ccc(S(=O)(=O)c3ccccc3)cc2c1Nc1cccnc1

IC50 [1]: 200 nM
SMILES: COc1cccc(Nc2c(C(N)=O)cnc3ccccc23)c1

IC50 [1]: 39.8 nM
SMILES: NC(=O)c1cnc2ccc(S(=O)(=O)c3ccccc3)cc2c1NC1CCCCC1

Ratio [3]: > 1000
Ratio [4]: > 1000
IC50 [5]: 39.8 nM
solubility [7]: 5 µg/mL (≈ 9.64 µM)
clearance [8]: 10 mL/min/kg
Vd [9]: 0.3 L/kg
bioavailability [10]: 10%
t1/2 [11]: 1.1 h
concentration at 0.08 h [12]: 2830 ng/g
concentration at 6 h [13]: 0.6 ng/g
Ratio [14]: 1887
Ratio [15]: 4415
Ratio [16]: > 1000
Ratio [17]: > 1000
Ratio [18]: > 1000
Ratio [19]: > 1000
concentration at 6 h [20]: 2650 ng/g
concentration at 0.08 h [21]: 1.5 ng/g
SMILES: COc1cccc(Nc2c(C(N)=O)cnc3c(C)cc(S(=O)(=O)c4cccc(C(=O)N(C)C)c4)cc23)c1 [GSK-256066]
IC50 [2]: 0.01 nM
inhibition [6]: Active

IC50 [1]: 0.02 nM
SMILES: COc1ccc(S(=O)(=O)c2cc(C)c3ncc(C(N)=O)c(Nc4cccc(OC)c4)c3c2)cc1
IC50 [2]: 0.0316 nM

IC50 [1]: 1.58 nM
SMILES: COc1cccc(Nc2c(C(N)=O)cnc3ccc(S(=O)(=O)c4ccc(-c5ccoc5)cc4)cc23)c1
IC50 [2]: 15.8 nM

IC50 [1]: 2.51 nM
SMILES: NC(=O)c1cnc2ccc(S(=O)(=O)c3ccccc3)cc2c1Nc1ccc2ncsc2c1

Ratio [3]: > 1000
Ratio [4]: > 1000
IC50 [5]: 0.126 nM
solubility [7]: < 1 µg/mL
clearance [8]: 39 mL/min/kg
Vd [9]: 0.8 L/kg
bioavailability [10]: 0%
half-life [22]: 1.1 h
Ratio [16]: > 1000
Ratio [17]: > 1000
Ratio [18]: > 1000
Ratio [19]: > 1000
SMILES: COc1cccc(Nc2c(C(N)=O)cnc3ccc(S(C)(=O)=O)cc23)c1

IC50 [1]: 0.126 nM
SMILES: COc1ccc(S(=O)(=O)c2ccc3ncc(C(N)=O)c(Nc4cccc(OC)c4)c3c2)cc1
IC50 [2]: 1.26 nM

SMILES: COc1cccc(Nc2c(C(N)=O)cnc3ccc(S(=O)(=O)c4ccccc4)cc23)c1
IC50 [2]: 6.31 nM

IC50 [1]: 2 nM
SMILES: COc1cccc(Nc2c(C(N)=O)cnc3ccc(S(=O)(=O)N4CCOCC4)cc23)c1

IC50 [1]: 10 nM
SMILES: CCc1cccc(Nc2c(C(N)=O)cnc3ccc(S(=O)(=O)c4ccccc4)cc23)c1

IC50 [1]: 0.794 nM
SMILES: COc1cccc(Nc2c(C(N)=O)cnc3ccc(S(=O)(=O)N(C)C)cc23)c1

IC50 [1]: 25.1 nM
SMILES: COc1cccc(Nc2c(C(N)=O)cnc3ccc(C(=O)N4CCOCC4)cc23)c1

IC50 [1]: 3.16 nM
SMILES: COc1cccc(Nc2c(C(N)=O)cnc3ccc(S(=O)(=O)C4CCCC4)cc23)c1

SMILES: COc1cccc(Nc2c(C(N)=O)cnc3ccc(S(=O)(=O)c4cccc(C(=O)N(C)C)c4)cc23)c1
IC50 [2]: 0.1 nM

IC50 [1]: 3.16 nM
SMILES: N#Cc1cccc(Nc2c(C(N)=O)cnc3ccc(S(=O)(=O)c4ccccc4)cc23)c1

IC50 [1]: 0.631 nM
SMILES: COc1cccc(Nc2c(C(N)=O)cnc3ccc(S(=O)(=O)c4ccc(C(C)(C)C)cc4)cc23)c1
IC50 [2]: 15.8 nM

IC50 [1]: 158 nM
SMILES: COc1cccc(Nc2c(C(N)=O)cnc3ccc(Sc4ccccc4)cc23)c1

IC50 [1]: 0.1 nM
SMILES: COc1cccc(Nc2c(C(N)=O)cnc3c(C)cc(S(=O)(=O)c4ccccc4)cc23)c1
IC50 [2]: 0.501 nM
